Experimental findings from US20230312587A1, “PTERIDINONE COMPOUNDS AND USES THEREOF” (Vertex Pharmaceutical Incorporated, priority 2018, published 2023) are described below.

The term pIC50 denotes the negative decadic logarithm of the IC50, by convention in mol/L.

Structures are written as SMILES. pIC50: −log10 of the molar value. Like-named read-outs stand apart in the source and are kept apart here.

The test has as its system β-catenin-TCF-mediated reporter transcription activity in Colo 205 cells. Briefly: Colo 205 reporter assay (TCF/LEF luciferase). Type of test: cell-based. As to conditions: Colo 205 TCF/LEF luciferase reporter, read-out: TCF reporter Colo205 IC50. An outline of the steps:
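Luciferase signal from a TCF/LEF-driven reporter, stably integrated in Colo 205 colon cancer cells, was measured 5 h after compound addition.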
A general note: A reporter such as luciferase makes a cellular process visible.

Setting [1] is: Homo sapiens, COLO 205, 5 h, five hours after addition of compound.
Setting [2] is: Homo sapiens, COLO 205, 5 h, R-isomer at C2 (corresponding to C2 S-isomer), 5 h.

Regarding `Cc1nc(N[C@H]2C[C@@H](NS(=O)(=O)c3cc(F)c(F)c(F)c3)C2)nc2c1NC(=O)[C@H](C)N2C` [Compound 481, 3,4,5-trifluoro-N-(cis-3-(((S)-4,7,8-trimethyl-6-oxo-5,6,7,8-tetrahydropteridin-2-yl)amino)cyclobutyl)benzenesulfonamide], the pIC50 under setting [1] was 6.00 to 6.52.
As for `COCC[C@@H]1C(=O)Nc2c(C)nc(NCc3cnn(Cc4ccc(C(F)(F)F)nc4)c3)nc2N1C` [Compound I-1647], the pIC50 under setting [2] was 5.30 to 6.00.
As for `Cc1nc(N[C@H]2C[C@H](Nc3ccc(C(F)(F)F)nc3)C2)nc2c1NC(=O)[C@H](C(C)C)N2C` [Compound 587, (S)-7-isopropyl-4,8-dimethyl-2-((trans-3-((6-(trifluoromethyl)pyridin-3-yl)amino)cyclobutyl)amino)-7,8-dihydropteridin-6(5H)-one], the pIC50 under setting [1] is 6.00 to 6.52.
In the case of `COCC1(C)C(=O)Nc2c(C)nc(NCc3cnn(Cc4cc(C(F)(F)F)nn4C)c3)nc2N1C` (centres unmarked) [Compound 709, 7-(methoxymethyl)-4,7,8-trimethyl-2-(((1-((1-methyl-3-(trifluoromethyl)-1H-pyrazol-5-yl)methyl)-1H-pyrazol-4-yl)methyl)amino)-7,8-dihydropteridin-6(5H)-one], under “five hours after addition of compound”, the pIC50 was 6.00 to 6.52.
Consider `Cc1nc(NCc2cnn(Cc3ccc(Cl)nc3)c2)nc2c1N(C)C(=O)[C@@H](CCO)N2C` [Compound I-1644], for which the pIC50 under setting [2] was 5.30 to 6.00.
Regarding `Cc1nc(N[C@H]2C[C@H](Oc3ncc(F)cn3)C2)nc2c1NC(=O)[C@H](C)N2C` [Compound 276, (7S)-2-((trans-3-((5-fluoropyrimidin-2-yl)oxy)cyclobutyl)amino)-4,7,8-trimethyl-7,8-dihydropteridin-6(5H)-one], under setting [1], the pIC50 was no more than 5.30.
Consider `COC1(C2C(=O)Nc3c(C)nc(NCc4cnn(Cc5ccc(C(F)(F)F)nc5)c4)nc3N2C)CCC1` (centres unmarked) [Compound 661, 7-(1-methoxycyclobutyl)-4,8-dimethyl-2-(((1-((6-(trifluoromethyl)pyridin-3-yl)methyl)-1H-pyrazol-4-yl)methyl)amino)-7,8-dihydropteridin-6(5H)-one], for which the pIC50 under setting [1] is greater than 6.52.
The same measure, in the same setting: under `Cc1nc(N[C@H]2C[C@@H](NC(=O)c3cc(F)c(F)c(F)c3)C2)nc2c1NC(=O)[C@H](C)N2C` [Compound 475, 3,4,5-trifluoro-N-(cis-3-(((S)-4,7,8-trimethyl-6-oxo-5,6,7,8-tetrahydropteridin-2-yl)amino)cyclobutyl)benzamide] stands 5.30 to 6.00.
For the molecule `Cc1nc(NCc2ncn(Cc3cc(F)c(F)c(F)c3)n2)nc2c1NC(=O)[C@H](C(C)C)N2C` [Compound 490, (S)-7-isopropyl-4,8-dimethyl-2-(((1-(3,4,5-trifluorobenzyl)-1H-1,2,4-triazol-3-yl)methyl)amino)-7,8-dihydropteridin-6(5H)-one], the pIC50 under setting [1] was no more than 5.30.
Same read-out and setting: under `Cc1nc(NCc2ccn(Cc3ccc(C(F)(F)F)nc3)n2)nc2c1NC(=O)C1(CC(F)(F)C1)N2C` [Compound 601, 3,3-difluoro-4′,8′-dimethyl-2′-(((1-((6-(trifluoromethyl)pyridin-3-yl)methyl)-1H-pyrazol-3-yl)methyl)amino)-5′,8′-dihydro-6′H-spiro[cyclobutane-1,7′-pteridin]-6′-one] stands 6.00 to 6.52.
Turning to `COCC1(C)C(=O)Nc2c(C)nc(N[C@H]3C[C@H](Oc4ccc(C(F)(F)F)nc4)C3)nc2N1C` (relative stereo) [Compound 724, 7-(methoxymethyl)-4,7,8-trimethyl-2-((trans-3-((6-(trifluoromethyl)pyridin-3-yl)oxy)cyclobutyl)amino)-7,8-dihydropteridin-6(5H)-one], the pIC50 under setting [1] was 6.00 to 6.52.
As for `Cc1nc(N[C@H]2C[C@H](N(C)c3cnc(C(F)(F)F)cn3)C2)nc2c1NC(=O)[C@H](C(C)C)N2C` [Compound 655, (7S)-7-isopropyl-4,8-dimethyl-2-((trans-3-(methyl(5-(trifluoromethyl)pyrazin-2-yl)amino)cyclobutyl)amino)-7,8-dihydropteridin-6(5H)-one], under setting [1], the pIC50 is greater than 6.52.
`C#CC[C@H]1C(=O)N(C)c2cnc(NCc3cnn(Cc4ccc(F)cc4)c3)nc2N1C` [Compound 26, (7S)-2-(((1-(4-fluorobenzyl)-1H-pyrazol-4-yl)methyl)amino)-5,8-dimethyl-7-(prop-2-yn-1-yl)-7,8-dihydropteridin-6(5H)-one]: the pIC50 under setting [1] was greater than 6.52.
On to `Cc1nc(N[C@H]2C[C@@H](COc3cncc(C(F)(F)F)c3)C2)nc2c1NC(=O)[C@H](C)N2C` [Compound 363, (7S)-4,7,8-trimethyl-2-((cis-3-(((5-(trifluoromethyl)pyridin-3-yl)oxy)methyl)cyclobutyl)amino)-7,8-dihydropteridin-6(5H)-one], for which, under setting [1], the pIC50 is greater than 6.52.
For `Cc1nc(N[C@H]2C[C@H](NCc3cc(F)c(F)c(F)c3)C2)nc2c1NC(=O)[C@H](C(C)C)N2C` [Compound 535, (S)-7-isopropyl-4,8-dimethyl-2-((trans-3-((3,4,5-trifluorobenzyl)amino)cyclobutyl)amino)-7,8-dihydropteridin-6(5H)-one], under setting [1], the pIC50 is greater than 6.52.
Same read-out and setting: in the case of `Cc1nc(NC2CN(C(=O)Cn3ccc(C(F)(F)F)n3)C2)nc2c1NC(=O)[C@H](C(C)C)N2C` [Compound 595, (S)-7-isopropyl-4,8-dimethyl-2-((1-(2-(3-(trifluoromethyl)-1H-pyrazol-1-yl)acetyl)azetidin-3-yl)amino)-7,8-dihydropteridin-6(5H)-one] it was 6.00 to 6.52; in that of `Cc1nc(NCc2cnn(Cc3ccc(C(F)(F)F)nc3)c2)nc2c1NC(=O)[C@H](CCO)N2` [Compound 439, (S)-7-(2-hydroxyethyl)-4-methyl-2-(((1-((6-(trifluoromethyl)pyridin-3-yl)methyl)-1H-pyrazol-4-yl)methyl)amino)-7,8-dihydropteridin-6(5H)-one], no more than 5.30.
On the same count and under the same terms, in the case of `Cc1nc(N[C@H]2C[C@@H](NCc3cc(F)c(F)c(F)c3)C2)nc2c1NC(=O)[C@H](C(C)C)N2C` [Compound 536, (S)-7-isopropyl-4,8-dimethyl-2-((cis-3-((3,4,5-trifluorobenzyl)amino)cyclobutyl)amino)-7,8-dihydropteridin-6(5H)-one] it was greater than 6.52; in that of `Cc1nc(NC2CN(C(=O)c3cnccn3)C2)nc2c1NC(=O)[C@H](C(C)C)N2C` [Compound 631, (S)-7-isopropyl-4,8-dimethyl-2-((1-(pyrazine-2-carbonyl)azetidin-3-yl)amino)-7,8-dihydropteridin-6(5H)-one], no more than 5.30.
As for `Cc1nc(N[C@H]2C[C@H](Oc3ccc(OCC(F)(F)F)nc3)C2)nc2c1N(C)C(=O)[C@H](C)N2C` [Compound 346, (7S)-4,5,7,8-tetramethyl-2-((trans-3-((6-(2,2,2-trifluoroethoxy)pyridin-3-yl)oxy)cyclobutyl)amino)-7,8-dihydropteridin-6(5H)-one], the negative-log IC50 (pIC50) under setting [1] is 6.00 to 6.52.
As to `COc1ccc(Cn2cc(CNc3ncc4c(n3)N(C)[C@@H](C)C(=O)N4)cn2)cc1F` [Compound 148, (7S)-2-(((1-(3-fluoro-4-methoxybenzyl)-1H-pyrazol-4-yl)methyl)amino)-7,8-dimethyl-7,8-dihydropteridin-6(5H)-one], under setting [1], the pIC50 is 6.00 to 6.52.
As to `Cc1nc(NCc2cnn(Cc3ccc(C(F)(F)F)nc3)c2)nc2c1NC(=O)[C@H](CO)N2C` [Compound 604, (S)-7-(hydroxymethyl)-4,8-dimethyl-2-(((1-((6-(trifluoromethyl)pyridin-3-yl)methyl)-1H-pyrazol-4-yl)methyl)amino)-7,8-dihydropteridin-6(5H)-one], the pIC50 under setting [1] was 5.30 to 6.00.
The same measure, in the same setting: under `C[C@H]1C(=O)Nc2cnc(NCc3cnn(Cc4ncc(F)cn4)c3)nc2N1C` [Compound 165, (7S)-2-(((1-((5-fluoropyrimidin-2-yl)methyl)-1H-pyrazol-4-yl)methyl)amino)-7,8-dimethyl-7,8-dihydropteridin-6(5H)-one] stands no more than 5.30.
Still for that read-out and setting: under `Cc1nc(N[C@H]2C[C@@H](Cn3nc(C(F)(F)F)cc3N)C2)nc2c1NC(=O)[C@H](C(C)C)N2C` [Compound 585, (S)-2-((cis-3-((5-amino-3-(trifluoromethyl)-1H-pyrazol-1-yl)methyl)cyclobutyl)amino)-7-isopropyl-4,8-dimethyl-7,8-dihydropteridin-6(5H)-one] stands 6.00 to 6.52; under `Cc1nc(N[C@H]2CCc3c2cnn3Cc2ccc(C(F)(F)F)nc2)nc2c1NC(=O)[C@H](C(C)C)N2C` [Compound 519, (S)-7-isopropyl-4,8-dimethyl-2-(((S)-1-((6-(trifluoromethyl)pyridin-3-yl)methyl)-1,4,5,6-tetrahydrocyclopenta[c]pyrazol-4-yl)amino)-7,8-dihydropteridin-6(5H)-one], 5.30 to 6.00.
Turning to `Cc1nc(N[C@H]2C[C@@H](NC(=O)Oc3cc(F)c(F)c(F)c3)C2)nc2c1NC(=O)[C@H](C)N2C` [Compound 484, 3,4,5-trifluorophenyl (cis-3-(((S)-4,7,8-trimethyl-6-oxo-5,6,7,8-tetrahydropteridin-2-yl)amino)cyclobutyl)carbamate], the pIC50 (Homo sapiens, 5 h, five hours after addition of compound) was 5.30 to 6.00.
For `Cc1nc(NCc2cnn(Cc3ccc(F)c(F)c3F)c2)nc2c1N(C)C(=O)[C@H](C)N2C` [Compound 17, (7S)-4,5,7,8-tetramethyl-2-(((1-(2,3,4-trifluorobenzyl)-1H-pyrazol-4-yl)methyl)amino)-7,8-dihydropteridin-6(5H)-one], the pIC50 under setting [1] was greater than 6.52.
On to `Cc1nc(N[C@H]2C[C@H](Oc3ccc(F)cc3)C2)nc2c1NC(=O)[C@H](C)N2C` [Compound 242, (7S)-2-((trans 3-(4-fluorophenoxy)cyclobutyl)amino)-4,7,8-trimethyl-7,8-dihydropteridin-6(5H)-one], for which, under setting [1], the pIC50 is greater than 6.52.
`CC(=O)N(Cc1cnn(Cc2ccc(C(F)(F)F)nc2)c1)c1nc(C)c2c(n1)N(C)[C@H](C)C(=O)N2` [Compound I-1640]: the negative logarithm of the IC50 (pIC50) under setting [2] is no more than 5.30.
